Calls of active or inactive are those of the source.
Legend:
[1] = target: T1, Heat shock factor protein 1 (Mus musculus, UniProt P38532); assay: HSF1 potentiators in luciferase reporter cells, confirmation, cell-based, NIH3T3, luminescence, dose retest (AID 435004); type: functional;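 further: stress induced by proteasome inhibitor MG132 added 30 min after compound; luciferase reporter driven by HSF1 response element in NIH3T3 cells; actives raise luminescence as potentiators of the MG132 stress response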
T1 sequence (P38532 whole entry): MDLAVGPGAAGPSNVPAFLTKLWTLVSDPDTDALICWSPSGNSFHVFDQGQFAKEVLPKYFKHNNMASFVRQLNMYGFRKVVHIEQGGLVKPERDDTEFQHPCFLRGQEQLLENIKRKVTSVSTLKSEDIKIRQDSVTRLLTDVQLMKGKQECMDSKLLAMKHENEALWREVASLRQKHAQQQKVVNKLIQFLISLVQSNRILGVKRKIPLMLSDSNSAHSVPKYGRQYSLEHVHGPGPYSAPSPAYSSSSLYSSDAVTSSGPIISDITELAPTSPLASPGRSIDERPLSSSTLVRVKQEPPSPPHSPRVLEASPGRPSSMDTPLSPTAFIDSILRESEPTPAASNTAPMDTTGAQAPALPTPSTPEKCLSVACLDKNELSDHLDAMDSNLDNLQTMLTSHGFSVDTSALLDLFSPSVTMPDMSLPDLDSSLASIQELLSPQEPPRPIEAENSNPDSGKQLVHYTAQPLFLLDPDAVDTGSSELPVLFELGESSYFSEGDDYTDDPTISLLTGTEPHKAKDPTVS

[2] = microbe, parasite or virus in culture; type: functional; details: Mycobacterium tuberculosis
INS1 = assay: beta cell apoptosis inhibitors, cytokine rescue, dose response, luminescence, retest (AID 449756); type: functional, cell-based; details: Rattus norvegicus;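 further: cell death triggered by IL-1 beta plus TNF-alpha plus IFN-gamma mixture; protective hits raise ATP signal compared with cytokine alone wells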
[3] = HEp-2 cell cytotoxicity, dose response, cytotoxicity control for RSV inhibitor project, HTS (AID 2410); type: functional; details: human respiratory syncytial virus
[4] = inhibitors of intracellular T. cruzi replication, confirmation, NIH3T3 host cells, beta-gal luminescence (AID 2044); type: functional, cell-based;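 further: intracellular parasites grown in NIH/3T3 mouse fibroblasts as host cells; luminescent beta-galactosidase reporter signal from transgenic T. cruzi replicating inside host cells; inhibitors lower the luminescence signal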
[5] = cytotoxicity toward NIH3T3 fibroblasts, dose response, counter-screen, cell-based, ATP luminescence, mouse fibroblasts (AID 2010); type: functional;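 further: cells exposed to compound for about 90 hours before reading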
[6] = NIH-3T3 fibroblast cytotoxicity, dose response, cytotoxicity control, cell-based, fluorescence, Alamar Blue, secondary assay (AID 2327); type: functional;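 further: NIH-3T3 mouse fibroblasts cultured with fluconazole at 8 µg/mL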
[7] = C. albicans growth with fluconazole, confirmation, fluorescence, retest (AID 2467); type: functional, cell-based
Cytochrome P450 2C19 = Cytochrome P450 2C19 (Homo sapiens, UniProt P33261); assay: Cytochrome panel assay with activity outcomes. Panel member name: p450-cyp2c19 Compounds with AC50 equal or less than 10 uM are considered active; type: functional; details: read-out: AC50
Cytochrome P450 2D6 = Cytochrome P450 2D6 (Homo sapiens, UniProt P10635);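 further: CYP2D6 member of a cytochrome P450 panel assay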
[8] = Luminescence Cell-Based Dose Retest to Confirm Inhibitors of Cancer Stem Cells. [Related pubchem assays (depositor defined):AID2717, AID2721]; type: functional; details: Homo sapiens
[9] = target: FAD-linked sulfhydryl oxidase ALR (Homo sapiens, UniProt P55789); assay: inhibitors of human ALR sulfhydryl oxidase, dose response, biochemical, H2O2 detection, luminescence, cherry-pick (AID 493248)
Cytochrome P450 2C9 = Cytochrome P450 2C9 (Homo sapiens, UniProt P11712)
[10] = Luminescence Cell-Based Dose Confirmation HTS to Identify Activators of 5'UTR Stem-Loop Driven Alpha-Synuclein mRNA Translation in H4 Neuroglioblastoma Cells. [Related pubchem assays: 1829 (Project Summary), 1814 (Primary HTS)]; type: functional
[11] = Luminescence Cell-Based Dose Response HTS to Identify Activators of Luciferase Translation or Activity in H4 […] Cells. [Related pubchem assays: 1829 (Project Summary), 1814 (Primary HTS)]; type: functional
H4 = assay: Luminescence Cell-Based Dose Response HTS to Identify Activators of 5'UTR Stem-Loop Driven Prion Protein mRNA Translation in H4 Neuroglioblastoma Cells. [Related pubchem assays: 1829 (Project Summary), 1814 (Primary HTS)]; type: functional; details: Homo sapiens
[12] = target: T2, Rac GTPase-activating protein 1 (Homo sapiens, UniProt Q9H0H5); assay: MgcRacGAP GTPase-activating activity inhibitors, confirmation, biochemical, ADP Hunter fluorescence, primary and confirmatory (AID 624330); type: functional
T2 sequence (Q9H0H5 whole entry): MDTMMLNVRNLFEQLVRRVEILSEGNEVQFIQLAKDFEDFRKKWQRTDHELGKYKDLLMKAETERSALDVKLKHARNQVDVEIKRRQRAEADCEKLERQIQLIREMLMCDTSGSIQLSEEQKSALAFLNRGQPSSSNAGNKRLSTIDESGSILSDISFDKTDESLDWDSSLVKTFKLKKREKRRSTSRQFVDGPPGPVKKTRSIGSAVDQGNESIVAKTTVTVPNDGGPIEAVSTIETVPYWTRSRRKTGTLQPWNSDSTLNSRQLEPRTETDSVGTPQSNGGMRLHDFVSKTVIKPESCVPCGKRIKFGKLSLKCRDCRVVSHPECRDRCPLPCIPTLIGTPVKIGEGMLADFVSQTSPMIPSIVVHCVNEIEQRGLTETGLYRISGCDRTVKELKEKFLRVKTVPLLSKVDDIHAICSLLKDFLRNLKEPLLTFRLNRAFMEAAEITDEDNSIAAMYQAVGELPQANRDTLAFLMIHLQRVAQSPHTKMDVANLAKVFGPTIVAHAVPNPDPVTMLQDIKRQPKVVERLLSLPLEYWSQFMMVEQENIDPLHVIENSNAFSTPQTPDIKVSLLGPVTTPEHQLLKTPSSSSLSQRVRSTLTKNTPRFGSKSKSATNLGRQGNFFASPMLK

Chain of FAD-linked sulfhydryl oxidase ALR (P55789 whole entry): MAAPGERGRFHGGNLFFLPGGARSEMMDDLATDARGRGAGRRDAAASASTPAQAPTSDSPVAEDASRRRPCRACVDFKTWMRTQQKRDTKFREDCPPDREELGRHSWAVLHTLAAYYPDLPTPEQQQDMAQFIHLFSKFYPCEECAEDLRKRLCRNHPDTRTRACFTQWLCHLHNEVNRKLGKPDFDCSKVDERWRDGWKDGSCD
Chain of Cytochrome P450 2D6 (P10635 whole entry): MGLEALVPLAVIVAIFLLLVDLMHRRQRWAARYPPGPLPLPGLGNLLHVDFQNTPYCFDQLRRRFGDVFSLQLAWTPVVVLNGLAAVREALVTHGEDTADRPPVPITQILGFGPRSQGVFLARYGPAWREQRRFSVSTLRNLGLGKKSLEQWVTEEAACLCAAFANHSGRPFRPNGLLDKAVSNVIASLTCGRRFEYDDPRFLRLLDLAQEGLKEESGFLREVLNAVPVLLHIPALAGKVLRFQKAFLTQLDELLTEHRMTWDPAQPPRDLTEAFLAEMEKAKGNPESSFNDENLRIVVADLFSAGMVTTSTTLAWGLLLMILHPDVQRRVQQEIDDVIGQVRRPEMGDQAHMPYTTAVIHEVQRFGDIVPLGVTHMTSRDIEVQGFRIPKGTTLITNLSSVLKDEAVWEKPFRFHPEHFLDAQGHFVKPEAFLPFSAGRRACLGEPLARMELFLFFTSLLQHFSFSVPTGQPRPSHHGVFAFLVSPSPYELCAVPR
Chain of Cytochrome P450 2C9 (P11712 whole entry): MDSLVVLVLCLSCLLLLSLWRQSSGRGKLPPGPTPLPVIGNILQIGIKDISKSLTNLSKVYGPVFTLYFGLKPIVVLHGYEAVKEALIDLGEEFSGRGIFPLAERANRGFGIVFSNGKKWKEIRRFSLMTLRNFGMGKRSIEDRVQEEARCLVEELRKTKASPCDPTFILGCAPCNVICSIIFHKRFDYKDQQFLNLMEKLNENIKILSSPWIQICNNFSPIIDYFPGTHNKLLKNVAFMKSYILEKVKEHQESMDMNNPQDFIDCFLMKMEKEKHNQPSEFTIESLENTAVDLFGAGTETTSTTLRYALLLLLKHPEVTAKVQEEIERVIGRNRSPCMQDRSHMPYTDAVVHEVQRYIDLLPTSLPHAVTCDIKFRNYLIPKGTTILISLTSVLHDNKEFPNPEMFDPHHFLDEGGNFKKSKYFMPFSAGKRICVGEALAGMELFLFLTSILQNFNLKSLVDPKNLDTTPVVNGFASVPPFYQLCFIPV
Chain of Cytochrome P450 2C19 (P33261 whole entry): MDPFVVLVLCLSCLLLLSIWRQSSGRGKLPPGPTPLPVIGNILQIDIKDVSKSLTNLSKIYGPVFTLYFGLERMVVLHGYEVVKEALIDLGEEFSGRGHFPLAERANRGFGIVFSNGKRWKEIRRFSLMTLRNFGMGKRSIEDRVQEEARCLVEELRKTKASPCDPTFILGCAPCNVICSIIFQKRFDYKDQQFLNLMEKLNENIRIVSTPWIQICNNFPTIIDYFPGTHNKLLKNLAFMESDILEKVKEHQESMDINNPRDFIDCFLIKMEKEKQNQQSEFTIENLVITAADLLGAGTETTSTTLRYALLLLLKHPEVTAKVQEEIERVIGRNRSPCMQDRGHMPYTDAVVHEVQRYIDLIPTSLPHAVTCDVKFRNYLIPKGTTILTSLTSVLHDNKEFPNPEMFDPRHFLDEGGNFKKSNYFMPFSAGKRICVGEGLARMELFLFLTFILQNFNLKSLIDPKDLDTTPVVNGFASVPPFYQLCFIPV

Structure (SMILES): O=C1c2ccccc2C(=O)N1CC(O)COc1ccc(Br)cc1 (stereo not drawn)
- EC50 [1]: 64.3 µM (active)

Structure (SMILES): O=C(NCCc1ccccc1)[C@@H]1CC=C[C@@H]2CCN(Cc3ccc(Cl)c(Cl)c3)C(=O)[C@@H]21
- CC50 [2]: 34.4 µM (active)
- AC50 (INS1): 6.35 µM (active)

Structure (SMILES): COc1ccc(-c2nc(Cn3c(SCc4ccc(F)cc4)nc4ccncc43)c(C)o2)cc1OC
- EC50 [1]: 34.7 µM (active)

Structure (SMILES): CC(=O)COc1cccc2ccc(/C=C/c3ccc(Br)s3)nc12
- CC50 [3]: 45.4 µM (active)
- EC50 [1]: 60.9 µM (active)

Structure (SMILES): S=C(NC1CCCCC1)NC1CC2C=CC1C2 (stereo not drawn)
- EC50 [1]: > 260 µM (inactive)

Structure (SMILES): O=C1CSC(=S)N1/N=C/c1cccc(C(F)(F)F)c1
- EC50 [1]: > 260 µM (inactive)

Structure (SMILES): COc1ccccc1-c1cc(C(=O)NC2CCN(C)CC2)c2ccc(Cl)c(C)c2n1
- EC50 [4]: 1.4 µM (active)
- CC50 [2]: 7.01 µM (active)
- EC50 [5]: > 60 µM (not active)

Structure (SMILES): CN(CC(=O)Nc1ccc(F)c(F)c1F)c1cnccn1
- CC50 [2]: 23.5 µM (active)

Structure (SMILES): Cn1c(=O)cc(OCCCC(=O)Nc2cccnc2)c2ccccc21
- EC50 [6]: > 160 µM (inactive)
- EC50 [7]: > 38 µM (not active)
- AC50 (Cytochrome P450 2C19): 20 µM (inconclusive)
- AC50 (Cytochrome P450 2D6): 10 µM (inconclusive)

Structure (SMILES): COc1ccc(C2CC(=O)c3cnc(N4CCc5ccccc54)nc3C2)cc1OC (stereo not drawn)
- EC50 [1]: > 260 µM (inactive)

Structure (SMILES): CCC(O)CC(C(=O)NNc1ccccc1)C(=O)NNc1ccccc1 (stereo not drawn)
- EC50 [6]: 20.6 µM (active)
- EC50 [7]: > 38 µM (not active)

Structure (SMILES): CC(=O)n1c2c(c3ccccc31)OC(N)=C(C#N)C2c1cccc(Cl)c1Cl (stereo not drawn)
- AC50 [8]: 1.57 µM (active)
- EC50 [1]: 42.4 µM (active)

Structure (SMILES): CCCc1cn(S(=O)(=O)c2ccc(OC)cc2OC)nc1N
- AC50 [9]: 9.53 µM (active)

Structure (SMILES): CC(C)=NN1C(=O)c2ccccc2NC1(C)C
- EC50 [1]: > 260 µM (inactive)

Structure (SMILES): CCc1ccccc1N=C(S)NNC(=O)c1ccccc1Cl
- EC50 [6]: > 150 µM (inactive)
- EC50 [7]: 1.93 µM (active)

Structure (SMILES): Cc1ccn(Cc2nnc(S)n2Cc2ccccc2)n1
- AC50 [9]: 8.59 µM (active)

Structure (SMILES): O=C(NNc1cccc(Cl)c1)c1cccnc1Cl
- EC50 [6]: 24.8 µM (active)
- EC50 [7]: > 38 µM (not active)
- AC50 [9]: 4.14 µM (active)

Structure (SMILES): O=C(Cn1cccn1)N1CCCC(Nc2ccc(F)c(F)c2)C1 (stereo not drawn)
- AC50 [9]: 1.92 µM (active)

Structure (SMILES): Cc1cc2c(cc1C)-c1nnnn1C(C)(C)C2
- EC50 [1]: > 260 µM (inactive)

Structure (SMILES): O=[N+]([O-])c1ccc(C2[C@H]3C(c4ccccc4)=NC4(CCCC4)N23)cc1 (stereo partly drawn)
- EC50 [6]: > 150 µM (inactive)
- EC50 [7]: > 38 µM (not active)

Structure (SMILES): C[C@@H]1C(NC(=O)c2ccccc2)CC2CC1C2(C)C (stereo partly drawn)
- EC50 [1]: > 260 µM (inactive)

Structure (SMILES): COc1ccc(-c2cc(-c3c(O)c(OC)c4occc4c3OC)[nH]n2)cc1OC
- EC50 [6]: > 160 µM (inactive)
- EC50 [7]: > 38 µM (not active)
- AC50 (Cytochrome P450 2D6): 25.1 µM (inconclusive)
- AC50 (Cytochrome P450 2C9): 39.8 µM (inconclusive)

Structure (SMILES): O=C(CN(C(=O)c1csnn1)c1ccc(F)c(Cl)c1)NCc1ccc(F)cc1
- EC50 [1]: > 260 µM (inactive)

Structure (SMILES): O=C(CN1C(=O)C2CC=CCC2C1=O)Nc1nc2ccc(F)cc2s1 (stereo not drawn)
- AC50 [9]: 0.494 µM (active)

Structure (SMILES): Cc1nc(SCc2cccc(F)c2)nc(O)c1C#N
- AC50 [9]: 9.69 µM (active)

Structure (SMILES): COC(=O)c1cc(-c2c(C)nn(-c3ccccc3)c2C)[nH]n1
- EC50 [10]: 11.8 µM (active)
- EC50 [11]: 11.5 µM (active)
- EC50 (H4): 11.2 µM (active)
- AC50 [9]: 1.2 µM (active)

Structure (SMILES): COc1ccccc1N1CCN(CCCCOc2cccc3ccccc23)CC1
- CC50 [2]: > 40 µM (active)

Structure (SMILES): CCCCNC(=O)/C(=C\c1ccc([N+](=O)[O-])o1)NC(=O)c1ccccc1
- EC50 [6]: > 150 µM (inactive)
- EC50 [7]: 0.265 µM (active)
- EC50 [4]: 0.863 µM (active)
- EC50 [5]: > 60 µM (inconclusive)

Structure (SMILES): Oc1ccc(/C(Cc2ccccn2)=N\Nc2ccccc2)c(O)c1
- AC50 [9]: 0.332 µM (active)

Structure (SMILES): Cc1ccc(C)c(CN2C(=O)COc3ccccc32)c1
- EC50 [1]: > 260 µM (inactive)

Structure (SMILES): C/C(=N/NC(=O)c1ccccc1O)c1ccc(N2C(=O)C3CCCCC3C2=O)cc1 (stereo not drawn)
- EC50 [6]: > 160 µM (inactive)
- EC50 [7]: > 38 µM (not active)

Structure (SMILES): O=C1C(=CNCCN2CCNCC2)C(=O)N(C2CCCCC2)C(=O)N1C1CCCCC1
- CC50 [2]: 33.5 µM (active)

Structure (SMILES): COCCNC(=O)NC12CC3CC(CC(C3)C1)C2
- EC50 [6]: > 160 µM (inconclusive)
- EC50 [7]: > 38 µM (not active)

Structure (SMILES): CCN(CCNC(=O)C1CCN(S(=O)(=O)CC)CC1)c1ccccc1
- AC50 [9]: 0.013 µM (active)

Structure (SMILES): O=S(=O)(Nc1ccc(N2CCCCC2)cc1)c1ccc(F)c(F)c1
- AC50 [9]: 4.17 µM (active)

Structure (SMILES): C=Cc1ncc(OC)c2c1[nH]c1ccccc12
- EC50 [1]: 9.2 µM (active)

Structure (SMILES): COCCCNC(=O)/C(C#N)=C/c1c(N2CCN(c3cccc(Cl)c3)CC2)nc2c(C)cccn2c1=O
- CC50 [2]: > 40 µM (active)

Structure (SMILES): COc1cc(/C=N/NC(=O)CN(Cc2ccco2)S(=O)(=O)c2ccccc2)ccc1O
- AC50 [9]: 1.13 µM (active)
- IC50 [12]: 40 µM (active)
